Among the data in BindingDB's records for patent US20250042862 (Shanghai Institute of Materia Medica, 2025) are IC50 values, retold here.

The experiment deals with Lysine-specific histone demethylase 1A (Homo sapiens, UniProt O60341). Briefly: In Vitro Enzyme Inhibition Activity Assay. Here is the method: The purpose of this experiment was to test the in vitro inhibitory activity of the compounds against LSD1. The human recombinant LSD1 protein used in the experiment was purchased from Active Motif, and the enzyme level activity testing assay of LSD1 was performed using the Lance Ultra LSD1 Histone H3 Lysine 4 Demethylase Assay Kit (PerkinElmer). Tris-buffer (50 mMTris-HCl, 50 mMNaCl, 0.01% Tween-20, 1 mM DTT, 10 μM FAD, 10% glycerol, pH 9.0) was first prepared, and after preparation, the LSD1 fractions required for test were placed in this buffer and incubated for one hour at room temperature; the fractions included 4 μL of substrate solution ([…] Bio-H3K4me2, 1-24aa), 4 μL of enzyme solution (4 nM LSD1), and 2 μL of inhibitor in a 384-well microplate. After these operations, another 5 μL of assay mixture containing Eu-labeled H3K4me0 antibody and ULight-Streptavidin anti-biotin protein was added to the system, after which the fluorescence intensity of the components to be tested was detected by using Envision (PerkinElmer) in TR-FRET mode (excitation wavelength of 320 nm, emission wavelength of 620 nm). The test was repeated a total of three times to minimize errors. The final IC50 data were calculated by the software GraphPad Prism 5, and finally the sigmoidal dose-response (variable slope) method was used to obtain the fitted curve.

For the compound `N#Cc1ccc(-c2nc(NC[C@H]3CCNC3)nc3ccc(-c4ccccc4C(F)(F)F)cc23)cc1F` [US20250042862, Compound 40], the IC50 (usually the concentration that inhibits the measured activity by half) was below 0.03 µM.

With `N#Cc1ccc(-c2nc(NC[C@H]3CCNC3)nc3ccc(-c4ccccc4Cl)cc23)cc1F` [US20250042862, Compound 42], the IC50 was below 0.03 µM.
